Assay results reported in US8629158B2, “Azabicycloalkane-indole and azabicycloalkane-pyrrolo-pyridine MCH-1 antagonists, methods of making, and use thereof” (Albany Molecular Research, Inc., priority 2009, dated 2014).
pKi: −log10 of the molar value. Where a name gives a salt, the structure may show the parent alone. Read-outs that look alike come from different tables or passages of the source.

Key:
human MCH-1 receptor = human MCH-1 receptor (Homo sapiens (Human), UniProt Q99705); assay: Binding Assay for Human Melanin-Concentrating Hormone (MCH-1) Receptor (radioligand displacement, CHO-K1 membranes); details: membranes from CHO-K1 cells expressing human MCH1 receptor, [3H]-labeled radioligand, Ki from IC50 by Cheng Prusoff; for Ki: MCH-1 Ki (nM); for pKi: read-out: MCH-1 Ki
Procedure: Evaluation of the affinity of compounds for the human MCH-1 receptor was accomplished using 4-(3,4,5-tritritiumbenzyloxy)-1-(1-(2-(pyrrolidin-1-yl)ethyl)-1H-indazol-5-yl)pyridin-2(1H)-one and membranes prepared from stable CHO-K1 cells expressing the human MCH1 receptor obtained from Euroscreen (Batch 1138). Cell membrane homogenates (8.92 μg protein) were incubated for 60 min at 25° C. with […] of the [^3H]-labeled compound in the absence or presence of the test compound in 50 mM Tris-HCl buffer, pH 7.4. Nonspecific binding was determined in the presence of 50 μM 1-(5-(4-cyanophenyl)bicyclo[3.1.0]hexan-2-yl)-3-(4-fluoro-3-(trifluoromethyl)phenyl)-1-(3-(4-methylpiperazin-1-yl)propyl)urea. Following incubation, the samples were filtered rapidly under vacuum through Skatron 11731 filters, pre-soaked in 0.5% polyethylenimine, and washed with ice-cold 50 mM Tris-HCl buffer, pH 7.4, (wash setting 9,9,0) using a Skatron cell harvester. The filters were counted for radioactivity in a liquid scintillation counter (Tri-Carb 2100TR, Packard) using a scintillation cocktail (Ultima Gold MV, Perkin Elmer).
The results are expressed as a percent inhibition of the control radioligand specific binding. The IC50 value (concentration causing a half-maximal inhibition of control specific binding) and Hill coefficient (nH) were determined by non-linear regression analysis of the competition curve using Hill equation curve fitting. The inhibition constant (Ki) was calculated from the Cheng Prusoff equation: (Ki=IC50/(1+(L/KD)), where L=concentration of radioligand in the assay, and KD=affinity of the radioligand for the receptor.

human MCH-1 receptor, sequence (Q99705 whole entry): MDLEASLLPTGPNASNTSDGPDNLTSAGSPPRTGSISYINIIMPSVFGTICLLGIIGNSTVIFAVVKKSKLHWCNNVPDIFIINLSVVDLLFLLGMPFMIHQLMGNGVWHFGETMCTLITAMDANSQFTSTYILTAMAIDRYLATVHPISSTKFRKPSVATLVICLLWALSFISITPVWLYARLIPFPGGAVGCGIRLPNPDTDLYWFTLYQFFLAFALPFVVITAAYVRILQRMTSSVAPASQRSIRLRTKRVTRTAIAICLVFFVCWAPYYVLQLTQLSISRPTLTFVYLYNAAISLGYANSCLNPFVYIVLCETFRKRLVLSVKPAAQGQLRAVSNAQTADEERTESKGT

SMILES	melting point	Ki (human MCH-1 receptor) [nM]	pKi (human MCH-1 receptor)
Cn1c2c(c3ccc(-n4ccc(-c5ccc(C(F)(F)F)nc5)cc4=O)cc31)C1CCC(C2)N1 (stereo not shown) (as salt: hydrochloride) [Example 5, 1-(5-Methyl-5,6,7,8,9,10-hexahydro-7,10-iminocyclohept[b]indol-3-yl)-4-(6-(trifluoromethyl)pyridin-3-yl)pyridin-2(1H)-one dihydrochloride]	228 to 233 °C		
Cn1c2c(c3ccc(-n4ccc(OCc5ccc(F)cn5)cc4=O)cc31)C1CCC(C2)N1 (stereo not shown) (as salt: hydrochloride) [Example 6, 4-((5-Fluoropyridin-2-yl)methoxy)-1-(5-methyl-5,6,7,8,9,10-hexahydro-7,10-iminocyclohept[b]indol-3-yl)pyridin-2(1H)-one dihydrochloride]	180 to 190 °C		
O=c1cc(OCc2ccc(F)cn2)ccn1-c1ccc2c3c([nH]c2c1)CC1CCC3N1 (stereo not shown) (as salt: hydrochloride) [Example 9, 4-((5-Fluoropyridin-2-yl)methoxy)-1-(5,6,7,8,9,10-hexahydro-7,10-iminocyclohept[b]indol-3-yl)pyridin-2(1H)-one dihydrochloride]	205 to 211 °C (dec.)		
CC(=O)N1C2CCC1c1c([nH]c3cc(-n4ccc(OCc5ccccc5)cc4=O)ccc13)C2 (single isomer, unassigned; enantiomer a) (as salt: hydrochloride) [Example 30, 1-(11-Acetyl-5,6,7,8,9,10-hexahydro-7,10-iminocyclohept[b]indol-3-yl)-4-(benzyloxy)pyridin-2(1H)-one hydrochloride (Enantiomer A)]	140 to 170 °C		
Cl.O=c1cc(OCc2ccccc2)ccn1-c1ccc2c3c([nH]c2c1)CC1CCC3N1 (single isomer, unassigned; enantiomer a) [Example 21, (+)-4-(Benzyloxy)-1-(5,6,7,8,9,10-hexahydro-7,10-iminocyclohept[b]indol-3-yl)pyridin-2(1H)-one hydrochloride (Enantiomer A)]	211 to 212 °C	39	
Cl.O=c1cc(OCc2ccccc2)ccn1-c1ccc2c3c([nH]c2c1)CC1CCC3N1 (single isomer, unassigned; enantiomer b) [Example 20, (−)-4-(Benzyloxy)-1-(5,6,7,8,9,10-hexahydro-7,10-iminocyclohept[b]indol-3-yl)pyridin-2(1H)-one hydrochloride (Enantiomer B)]	211 to 217 °C	9.3	
Cl.Cn1c2c(c3ccc(-n4ccc(-c5ccc(C(F)(F)F)nn5)cc4=O)cc31)C1CCC(C2)N1 (stereo not shown) [Example 3, 1-(5-Methyl-5,6,7,8,9,10-hexahydro-7,10-iminocyclohept[b]indol-3-yl)-4-(6-(trifluoromethyl)pyridazin-3-yl)pyridin-2(1H)-one hydrochloride]	235 to 245 °C		7.61
Cl.O=c1cc(OCc2ccccc2)ccn1-c1ccc2c3c([nH]c2c1)CC1CCC3N1 (stereo not shown) [Example 8, 4-(Benzyloxy)-1-(5,6,7,8,9,10-hexahydro-7,10-iminocyclohept[b]indol-3-yl)pyridin-2(1H)-one hydrochloride]	209 to 214 °C		8.01
Cl.O=c1cc(-c2ccc(C(F)(F)F)nc2)ccn1-c1ccc2c3c([nH]c2c1)CC1CCC3N1 (stereo not shown) [Example 10, 1-(5,6,7,8,9,10-Hexahydro-7,10-iminocyclohept[b]indol-3-yl)-4-(6-(trifluoromethyl)pyridin-3-yl)pyridin-2(1H)-one hydrochloride]	215 to 235 °C (dec.)		7.64
Cl.Cn1c2c(c3ccc(-n4ccc(-c5ccc(C(F)(F)F)nc5)cc4=O)cc31)C1CCCC(C2)N1 (stereo not shown) [Example 13, 1-(5-Methyl-6,7,8,9,10,11-hexahydro-7,11-imino-5H-cyclooct[b]indol-3-yl)-4-(6-(trifluoromethyl)pyridin-3-yl)pyridin-2(1H)-one hydrochloride]	265 to 274 °C (dec.)		7.33
Cn1c2c(c3ccc(-n4ccc(OCc5ccccc5)cc4=O)nc31)C1CCC(C2)N1 (stereo not shown) [Example 39, 4-(Benzyloxy)-1-(10-methyl-5,6,7,8,9,10-hexahydro-5,8-iminocyclohepta[4,5]pyrrolo[2,3-b]pyridin-2-yl)pyridin-2(1H)-one hydrochloride]			7.68
CN1C2CCC1c1c(n(C)c3nc(-n4ccc(OCc5ccccc5)cc4=O)ccc13)C2 (stereo not shown) [Example 42, 4-(Benzyloxy)-1-(10,11-dimethyl-5,6,7,8,9,10-hexahydro-5,8-iminocyclohepta[4,5]pyrrolo[2,3-b]pyridin-2-yl)pyridin-2(1H)-one hydrochloride]			7.57
Cn1c2c(c3ccc(-n4ccc(OCc5ccc(F)cn5)cc4=O)nc31)C1CCC(C2)N1 (stereo not shown) [Example 43, 4-((5-Fluoropyridin-2-yl)methoxy)-1-(10-methyl-5,6,7,8,9,10-hexahydro-5,8-iminocyclohepta[4,5]pyrrolo[2,3-b]pyridin-2-yl)pyridin-2(1H)-one hydrochloride]			7.42
Cn1c2c(c3ccc(-n4ccc(-c5ccc(C(F)(F)F)nc5)cc4=O)nc31)C1CCC(C2)N1 (stereo not shown) [Example 44, 1-(10-Methyl-5,6,7,8,9,10-hexahydro-5,8-iminocyclohepta[4,5]pyrrolo[2,3-b]pyridin-2-yl)-4-(6-(trifluoromethyl)pyridin-3-yl)pyridin-2(1H)-one hydrochloride]			6.96
Cn1c2c(c3ccc(-n4ccc(OCc5ccc(F)cc5F)cc4=O)nc31)C1CCC(C2)N1 (stereo not shown) [Example 45, 4-(2,4-Difluorobenzyloxy)-1-(10-methyl-5,6,7,8,9,10-hexahydro-5,8-iminocyclohepta[4,5]pyrrolo[2,3-b]pyridin-2-yl)pyridin-2(1H)-one hydrochloride]			7.59
Cn1c2c(c3ccc(N4CCN(CCc5ccc(Cl)cc5)CC4=O)nc31)C1CCC(C2)N1 (stereo not shown) [Example 46, 4-(4-Chlorophenethyl)-1-(10-methyl-5,6,7,8,9,10-hexahydro-5,8-iminocyclohepta[4,5]pyrrolo[2,3-b]pyridin-2-yl)-piperazin-2-one dihydrochloride]			7.00
Cn1c2c(c3ccc(-n4ccc(OCc5ccc(Cl)cc5F)cc4=O)nc31)C1CCC(C2)N1 (stereo not shown) [Example 47, 4-(4-Chloro-2-fluorobenzyloxy)-1-(10-methyl-5,6,7,8,9,10-hexahydro-5,8-iminocyclohepta[4,5]pyrrolo[2,3-b]pyridin-2-yl)pyridin-2(1H)-one hydrochloride]			7.85
Cn1c2c(c3ccc(-n4ccc(OCc5ccc(Cl)cc5Cl)cc4=O)nc31)C1CCC(C2)N1 (stereo not shown) [Example 48, 4-(2,4-Dichlorobenzyloxy)-1-(10-methyl-5,6,7,8,9,10-hexahydro-5,8-iminocyclohepta[4,5]pyrrolo[2,3-b]pyridin-2-yl)pyridin-2(1H)-one hydrochloride]			7.55
Cn1c2c(c3ccc(-n4ccc(-c5ccc(C(F)(F)F)cc5)cc4=O)nc31)C1CCC(C2)N1 (stereo not shown) [Example 50, 1-(10-Methyl-5,6,7,8,9,10-hexahydro-5,8-iminocyclohepta[4,5]pyrrolo[2,3-b]pyridin-2-yl)-4-(4-(trifluoromethyl)phenyl)pyridin-2(1H)-one hydrochloride]			7.72
